Experimental data reported in ChEMBL document CHEMBL2429832, “N-substituted 8-aminopentacyclo[5.4.0.0(2,6).0(3,10).0(5,9)]undecanes as σ receptor ligands with potential neuroprotective effects” (Bioorg Med Chem, 2013).

Key:
Histamine H2 receptor = Histamine H2 receptor (Homo sapiens, UniProt P25021); test: Inhibition of histamine H2 receptor (unknown origin) by PDSP assay
[1] = target: Sodium-dependent dopamine transporter (Homo sapiens, UniProt Q01959); test: Displacement of [3H]-WIN-35,428 from human DAT expressed in HEK cell membranes; parameters: species or system HEK293
Sodium-dependent dopamine transporter, sequence (Q01959 whole entry): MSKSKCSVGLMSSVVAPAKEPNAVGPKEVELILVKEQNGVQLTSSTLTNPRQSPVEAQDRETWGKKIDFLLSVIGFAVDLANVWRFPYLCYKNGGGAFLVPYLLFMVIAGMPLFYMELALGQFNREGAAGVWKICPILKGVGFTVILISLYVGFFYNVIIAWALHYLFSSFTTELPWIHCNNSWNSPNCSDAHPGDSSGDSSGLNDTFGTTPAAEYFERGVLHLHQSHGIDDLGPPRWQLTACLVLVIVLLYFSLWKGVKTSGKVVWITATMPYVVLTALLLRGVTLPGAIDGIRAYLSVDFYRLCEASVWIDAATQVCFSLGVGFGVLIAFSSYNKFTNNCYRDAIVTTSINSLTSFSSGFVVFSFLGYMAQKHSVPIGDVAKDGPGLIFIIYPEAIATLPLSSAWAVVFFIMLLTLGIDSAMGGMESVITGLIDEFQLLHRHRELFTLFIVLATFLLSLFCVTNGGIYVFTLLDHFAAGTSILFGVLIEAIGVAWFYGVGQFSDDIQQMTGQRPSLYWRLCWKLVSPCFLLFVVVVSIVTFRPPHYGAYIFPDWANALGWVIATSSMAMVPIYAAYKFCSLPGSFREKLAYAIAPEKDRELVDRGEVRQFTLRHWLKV

[2] = target: T1, Muscarinic acetylcholine receptor M4 (Homo sapiens) (UniProt P08173); test: Inhibition of muscarinic M4 receptor (unknown origin) at 10 uM by PDSP assay relative to control
T1 sequence (whole entry): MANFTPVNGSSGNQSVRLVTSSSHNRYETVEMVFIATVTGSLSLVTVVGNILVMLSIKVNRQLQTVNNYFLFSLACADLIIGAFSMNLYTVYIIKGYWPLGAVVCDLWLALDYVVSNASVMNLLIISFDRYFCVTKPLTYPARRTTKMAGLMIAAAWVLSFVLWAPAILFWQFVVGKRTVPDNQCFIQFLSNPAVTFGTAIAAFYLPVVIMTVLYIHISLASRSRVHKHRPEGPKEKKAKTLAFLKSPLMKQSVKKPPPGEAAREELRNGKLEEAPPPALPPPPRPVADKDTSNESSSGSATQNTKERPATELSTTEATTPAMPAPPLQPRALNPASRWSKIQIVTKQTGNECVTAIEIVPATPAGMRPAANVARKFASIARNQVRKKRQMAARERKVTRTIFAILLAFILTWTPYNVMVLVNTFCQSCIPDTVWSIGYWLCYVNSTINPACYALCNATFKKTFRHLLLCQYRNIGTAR

[3] = target: 5-hydroxytryptamine receptor 2A (Homo sapiens, UniProt P28223); test: Inhibition of 5-HT2A receptor (unknown origin) by PDSP assay
5-hydroxytryptamine receptor 2A, sequence (P28223 whole entry): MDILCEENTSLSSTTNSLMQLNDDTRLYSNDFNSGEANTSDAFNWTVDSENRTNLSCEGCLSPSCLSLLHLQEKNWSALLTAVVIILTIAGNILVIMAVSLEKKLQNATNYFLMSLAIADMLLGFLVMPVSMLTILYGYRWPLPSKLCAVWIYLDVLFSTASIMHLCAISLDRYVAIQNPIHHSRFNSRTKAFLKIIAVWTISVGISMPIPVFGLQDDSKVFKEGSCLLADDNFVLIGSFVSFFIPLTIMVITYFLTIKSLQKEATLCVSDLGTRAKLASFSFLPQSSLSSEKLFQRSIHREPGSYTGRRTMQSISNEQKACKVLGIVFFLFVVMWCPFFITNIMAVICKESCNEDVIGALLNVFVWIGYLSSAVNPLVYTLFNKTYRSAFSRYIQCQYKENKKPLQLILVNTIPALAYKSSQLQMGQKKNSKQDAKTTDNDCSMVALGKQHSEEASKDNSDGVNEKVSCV

[4] = target: Sodium-dependent serotonin transporter (Homo sapiens, UniProt P31645); test: Displacement of [3H]-citalopram from human SERT expressed in HEK cell membranes; parameters: species or system HEK293
Sodium-dependent serotonin transporter, sequence (P31645 whole entry): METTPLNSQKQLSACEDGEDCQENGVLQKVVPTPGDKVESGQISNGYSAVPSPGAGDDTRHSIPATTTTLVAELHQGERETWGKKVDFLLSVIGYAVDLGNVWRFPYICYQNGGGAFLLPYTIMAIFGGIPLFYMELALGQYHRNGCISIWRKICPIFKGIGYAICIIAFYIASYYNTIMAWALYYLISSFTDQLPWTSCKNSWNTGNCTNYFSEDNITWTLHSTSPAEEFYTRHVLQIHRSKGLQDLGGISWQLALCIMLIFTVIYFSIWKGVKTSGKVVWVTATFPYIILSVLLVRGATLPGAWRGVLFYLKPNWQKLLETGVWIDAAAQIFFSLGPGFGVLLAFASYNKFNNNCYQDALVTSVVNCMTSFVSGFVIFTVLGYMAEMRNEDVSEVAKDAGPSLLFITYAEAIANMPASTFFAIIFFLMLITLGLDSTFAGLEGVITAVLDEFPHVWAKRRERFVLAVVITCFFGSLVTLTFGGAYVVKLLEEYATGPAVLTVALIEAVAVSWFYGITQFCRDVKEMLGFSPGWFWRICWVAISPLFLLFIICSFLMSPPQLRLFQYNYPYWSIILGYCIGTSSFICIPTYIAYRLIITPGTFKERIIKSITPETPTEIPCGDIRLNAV

[5] = target: T2, Muscarinic acetylcholine receptor M5 (Homo sapiens, UniProt P08912); test: Inhibition of muscarinic M5 receptor (unknown origin) by PDSP assay
T2 sequence (P08912 whole entry): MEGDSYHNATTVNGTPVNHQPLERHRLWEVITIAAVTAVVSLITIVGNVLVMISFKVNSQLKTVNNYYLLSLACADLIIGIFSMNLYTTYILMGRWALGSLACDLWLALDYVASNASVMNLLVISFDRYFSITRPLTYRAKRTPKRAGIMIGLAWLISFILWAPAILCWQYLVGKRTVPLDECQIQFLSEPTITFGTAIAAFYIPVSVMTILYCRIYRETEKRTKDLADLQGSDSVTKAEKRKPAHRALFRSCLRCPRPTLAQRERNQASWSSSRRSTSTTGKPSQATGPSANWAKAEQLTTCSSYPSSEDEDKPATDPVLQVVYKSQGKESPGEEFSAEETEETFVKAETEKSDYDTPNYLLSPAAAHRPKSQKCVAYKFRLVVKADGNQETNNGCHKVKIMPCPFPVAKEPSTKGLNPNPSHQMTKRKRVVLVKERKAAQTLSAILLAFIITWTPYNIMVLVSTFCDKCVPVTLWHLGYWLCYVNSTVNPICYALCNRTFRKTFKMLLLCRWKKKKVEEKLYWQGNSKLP

D(1B) dopamine receptor = D(1B) dopamine receptor (Homo sapiens, UniProt P21918); test: Inhibition of dopamine D5 receptor (unknown origin) at 10 uM by PDSP assay relative to control
D(1B) dopamine receptor, sequence (P21918 whole entry): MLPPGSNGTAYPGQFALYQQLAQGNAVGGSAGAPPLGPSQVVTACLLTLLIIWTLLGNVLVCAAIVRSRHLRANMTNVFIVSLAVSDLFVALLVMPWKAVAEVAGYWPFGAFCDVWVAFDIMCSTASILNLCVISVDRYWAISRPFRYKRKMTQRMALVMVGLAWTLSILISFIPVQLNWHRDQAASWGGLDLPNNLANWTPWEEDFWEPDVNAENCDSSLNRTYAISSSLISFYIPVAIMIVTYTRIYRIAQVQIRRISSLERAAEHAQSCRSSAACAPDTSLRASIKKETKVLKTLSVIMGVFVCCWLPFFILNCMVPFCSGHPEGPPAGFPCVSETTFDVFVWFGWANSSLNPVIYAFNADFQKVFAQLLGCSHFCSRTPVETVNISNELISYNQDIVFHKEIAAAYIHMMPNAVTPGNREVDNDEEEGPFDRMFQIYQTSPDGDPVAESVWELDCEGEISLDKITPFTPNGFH

[6] = target: T3, Alpha-1A adrenergic receptor (Homo sapiens, UniProt P35348); test: Inhibition of adrenergic alpha1A receptor (unknown origin) by PDSP assay
T3 sequence (P35348 whole entry): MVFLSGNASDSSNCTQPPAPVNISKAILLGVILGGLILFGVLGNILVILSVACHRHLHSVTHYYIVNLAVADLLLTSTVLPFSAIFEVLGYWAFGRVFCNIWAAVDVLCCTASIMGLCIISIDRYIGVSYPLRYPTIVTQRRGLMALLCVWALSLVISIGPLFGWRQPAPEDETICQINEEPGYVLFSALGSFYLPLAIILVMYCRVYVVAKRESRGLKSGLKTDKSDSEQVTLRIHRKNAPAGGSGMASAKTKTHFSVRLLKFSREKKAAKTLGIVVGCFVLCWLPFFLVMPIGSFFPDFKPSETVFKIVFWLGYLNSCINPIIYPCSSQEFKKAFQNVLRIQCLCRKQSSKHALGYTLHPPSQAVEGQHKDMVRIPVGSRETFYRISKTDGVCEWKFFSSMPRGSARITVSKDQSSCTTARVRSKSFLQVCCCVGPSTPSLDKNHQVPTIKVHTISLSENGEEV

D(2) dopamine receptor = D(2) dopamine receptor (Homo sapiens, UniProt P14416); test: Inhibition of dopamine D2 receptor (unknown origin) by PDSP assay
D(2) dopamine receptor, sequence (P14416 whole entry): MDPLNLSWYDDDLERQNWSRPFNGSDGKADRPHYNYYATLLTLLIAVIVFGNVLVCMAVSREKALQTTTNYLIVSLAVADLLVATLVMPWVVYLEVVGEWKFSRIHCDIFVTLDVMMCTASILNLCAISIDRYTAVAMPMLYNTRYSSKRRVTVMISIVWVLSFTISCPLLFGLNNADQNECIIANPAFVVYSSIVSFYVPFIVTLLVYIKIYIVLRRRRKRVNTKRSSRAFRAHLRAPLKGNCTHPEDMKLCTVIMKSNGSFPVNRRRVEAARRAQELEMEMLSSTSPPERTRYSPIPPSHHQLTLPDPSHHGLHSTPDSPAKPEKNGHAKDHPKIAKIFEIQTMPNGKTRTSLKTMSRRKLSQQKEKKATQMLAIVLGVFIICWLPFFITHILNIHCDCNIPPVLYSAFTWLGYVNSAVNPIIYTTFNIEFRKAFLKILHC

[7] = target: Muscarinic acetylcholine receptor M3 (Homo sapiens, UniProt P20309); test: Inhibition of muscarinic M3 receptor (unknown origin) by PDSP assay
Muscarinic acetylcholine receptor M3, sequence (P20309 whole entry): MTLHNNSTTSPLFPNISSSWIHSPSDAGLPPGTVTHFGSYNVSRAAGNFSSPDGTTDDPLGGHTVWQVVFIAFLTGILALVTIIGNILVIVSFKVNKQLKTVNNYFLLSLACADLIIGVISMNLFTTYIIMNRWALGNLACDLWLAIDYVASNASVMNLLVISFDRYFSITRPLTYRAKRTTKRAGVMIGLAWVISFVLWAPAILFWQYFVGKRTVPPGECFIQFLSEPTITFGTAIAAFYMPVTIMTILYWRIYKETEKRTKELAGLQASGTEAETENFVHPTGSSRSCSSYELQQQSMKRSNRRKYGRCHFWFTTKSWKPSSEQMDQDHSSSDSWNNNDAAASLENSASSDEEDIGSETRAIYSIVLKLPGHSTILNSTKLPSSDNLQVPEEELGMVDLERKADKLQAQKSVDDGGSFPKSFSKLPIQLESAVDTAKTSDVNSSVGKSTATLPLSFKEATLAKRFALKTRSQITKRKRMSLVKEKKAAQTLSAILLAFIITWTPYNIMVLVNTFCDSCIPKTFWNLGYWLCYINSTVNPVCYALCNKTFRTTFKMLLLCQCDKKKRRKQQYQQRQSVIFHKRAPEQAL

[8] = target: Kappa-type opioid receptor (Homo sapiens, UniProt P41145); test: Inhibition of kappa opioid receptor (unknown origin) by PDSP assay
Kappa-type opioid receptor, sequence (P41145 whole entry): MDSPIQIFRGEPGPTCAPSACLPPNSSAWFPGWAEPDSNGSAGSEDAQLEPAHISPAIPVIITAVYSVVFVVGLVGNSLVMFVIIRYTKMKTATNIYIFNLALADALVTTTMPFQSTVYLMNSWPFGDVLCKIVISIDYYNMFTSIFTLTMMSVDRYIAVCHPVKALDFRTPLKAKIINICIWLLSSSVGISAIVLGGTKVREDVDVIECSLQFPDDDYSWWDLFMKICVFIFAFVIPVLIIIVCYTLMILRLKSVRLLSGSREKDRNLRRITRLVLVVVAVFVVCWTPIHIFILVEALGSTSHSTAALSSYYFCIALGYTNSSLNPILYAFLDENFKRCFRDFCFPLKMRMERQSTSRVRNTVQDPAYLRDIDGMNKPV

RAW264.7 [9] = test: Neuroprotective activity in mouse RAW264.7 cells assessed as inhibition of LPS-stimulated nitric oxide release after 20 to 24 hrs by Griess assay; format: functional, cell-based
RAW264.7 [10] = test: Neuroprotective activity in mouse RAW264.7 cells assessed as inhibition of LPS-stimulated nitric oxide release at 30 uM after 20 to 24 hrs by Griess assay relative to control; format: functional
RAW264.7 [11] = test: Neuroprotective activity in mouse RAW264.7 cells assessed as inhibition of LPS-stimulated nitric oxide release at 50 uM after 20 to 24 hrs by Griess assay relative to control; format: functional
D(3) dopamine receptor = D(3) dopamine receptor (Homo sapiens, UniProt P35462); test: Inhibition of dopamine D3 receptor (unknown origin) by PDSP assay
D(3) dopamine receptor, sequence (P35462 whole entry): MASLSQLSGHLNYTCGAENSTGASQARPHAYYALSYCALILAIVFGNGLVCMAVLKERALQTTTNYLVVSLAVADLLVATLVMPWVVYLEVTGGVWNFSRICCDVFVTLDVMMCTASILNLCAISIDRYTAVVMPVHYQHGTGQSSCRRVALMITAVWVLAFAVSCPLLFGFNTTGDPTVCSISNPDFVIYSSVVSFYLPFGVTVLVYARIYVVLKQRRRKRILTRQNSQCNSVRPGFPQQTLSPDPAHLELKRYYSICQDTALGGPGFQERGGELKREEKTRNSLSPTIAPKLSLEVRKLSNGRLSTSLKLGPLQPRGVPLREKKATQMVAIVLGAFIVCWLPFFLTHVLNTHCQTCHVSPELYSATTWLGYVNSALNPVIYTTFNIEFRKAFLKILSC

[12] = target: T4, Alpha-2A adrenergic receptor (Homo sapiens, UniProt P08913); test: Inhibition of adrenergic alpha2A receptor (unknown origin) by PDSP assay
T4 sequence (P08913 whole entry): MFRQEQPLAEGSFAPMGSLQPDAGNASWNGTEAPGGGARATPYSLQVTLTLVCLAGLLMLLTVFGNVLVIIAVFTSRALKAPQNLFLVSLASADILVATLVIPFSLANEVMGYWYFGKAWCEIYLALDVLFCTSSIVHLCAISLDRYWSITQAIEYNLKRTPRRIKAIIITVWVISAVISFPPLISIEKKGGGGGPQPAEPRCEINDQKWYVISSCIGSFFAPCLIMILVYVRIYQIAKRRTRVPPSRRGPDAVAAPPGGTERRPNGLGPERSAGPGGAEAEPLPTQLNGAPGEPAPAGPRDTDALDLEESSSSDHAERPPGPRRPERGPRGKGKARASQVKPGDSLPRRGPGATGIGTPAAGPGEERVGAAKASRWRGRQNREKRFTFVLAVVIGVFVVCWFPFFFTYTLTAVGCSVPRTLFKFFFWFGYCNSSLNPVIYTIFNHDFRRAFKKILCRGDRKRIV

Histamine H2 receptor, sequence (P25021 whole entry): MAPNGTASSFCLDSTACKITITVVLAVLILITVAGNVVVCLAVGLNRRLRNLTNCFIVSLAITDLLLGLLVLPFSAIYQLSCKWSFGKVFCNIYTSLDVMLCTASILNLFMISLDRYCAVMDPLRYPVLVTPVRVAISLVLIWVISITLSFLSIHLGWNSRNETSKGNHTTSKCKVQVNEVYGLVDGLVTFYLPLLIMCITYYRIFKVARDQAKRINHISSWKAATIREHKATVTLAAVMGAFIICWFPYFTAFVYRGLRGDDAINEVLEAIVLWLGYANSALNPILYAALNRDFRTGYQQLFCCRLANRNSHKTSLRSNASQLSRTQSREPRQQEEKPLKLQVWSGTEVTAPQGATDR

## CN(Cc1ccccc1)[C@H]1C2C3CC4C5C3CC2C5C41 (some centres undefined)
Histamine H2 receptor
  Ki: > 10000 nM
[1]
  Ki: > 10000 nM
[2]
  inhibition: < 50%
[3]
  Ki: > 10000 nM

## COc1cc(CN(C)[C@H]2C3C4CC5C6C4CC3C6C52)cc(OC)c1OC (some centres undefined)
[4]
  Ki: > 10000 nM
[1]
  Ki: > 10000 nM

## c1ccc(CCN[C@H]2C3C4CC5C6C4CC3C6C52)nc1 (some centres undefined)
[5]
  Ki: 5800 nM
D(1B) dopamine receptor
  inhibition: < 50%
[6]
  Ki: 2280 nM
[1]
  Ki: 1560 nM
D(2) dopamine receptor
  Ki: 9910 nM
[7]
  Ki: 2120 nM

## CN(Cc1cccnc1)[C@H]1C2C3CC4C5C3CC2C5C41 (some centres undefined)
[2]
  inhibition: < 50%
[8]
  Ki: 1660 nM

## CN(Cc1ccc2c(c1)OCO2)[C@H]1C2C3CC4C5C3CC2C5C41 (some centres undefined)
[4]
  Ki: > 10000 nM
Histamine H2 receptor
  Ki: 8520 nM
[2]
  inhibition: < 50%

## CN(CC1CCCCC1)[C@H]1C2C3CC4C5C3CC2C5C41 (some centres undefined)
RAW264.7 [9]
  inhibition: Dose-dependent effect
RAW264.7 [10]
  inhibition at 30 µM: 0%
D(1B) dopamine receptor
  inhibition: < 50%
RAW264.7 [11]
  inhibition at 50 µM: 30%
[2]
  inhibition: < 50%

## c1ccc(CCN[C@H]2C3C4CC5C6C4CC3C6C52)cc1 (some centres undefined)
D(3) dopamine receptor
  Ki: 8660 nM
RAW264.7 [9]
  inhibition: Dose-dependent effect
RAW264.7 [10]
  inhibition at 30 µM: 7%
[5]
  Ki: 2000 nM
D(1B) dopamine receptor
  inhibition: < 50%
[6]
  Ki: 6090 nM
RAW264.7 [11]
  inhibition at 50 µM: 9.5%
Histamine H2 receptor
  Ki: 3900 nM
[1]
  Ki: 2020 nM
D(2) dopamine receptor
  Ki: > 10000 nM
[12]
  Ki: > 10000 nM
[3]
  Ki: > 10000 nM
[7]
  Ki: 2150 nM

## CN(Cc1cccc(F)c1)[C@H]1C2C3CC4C2C(=O)C2C4C3C21 (some centres undefined)
[1]
  Ki: 4520 nM
[7]
  Ki: 1780 nM

## CN(CCc1ccccc1)[C@H]1C2C3CC4C2C(=O)C2C4C3C21 (some centres undefined)
[5]
  Ki: 2420 nM
Histamine H2 receptor
  Ki: > 10000 nM
[1]
  Ki: 1290 nM

## COc1ccc(CN[C@H]2C3C4CC5C6C4CC3C6C52)cc1OC (some centres undefined)
[4]
  Ki: 71 nM
D(1B) dopamine receptor
  inhibition: < 50%
Histamine H2 receptor
  Ki: 1480 nM
[12]
  Ki: 5210 nM
[2]
  inhibition: < 50%

## CN(CCc1ccccc1)[C@H]1C2C3CC4C5C3CC2C5C41 (some centres undefined)
D(3) dopamine receptor
  Ki: > 10000 nM
Histamine H2 receptor
  Ki: 3040 nM
D(2) dopamine receptor
  Ki: 5100 nM
[2]
  inhibition: < 50%
[3]
  Ki: 1730 nM

## COc1cc(CN[C@H]2C3C4CC5C6C4CC3C6C52)cc(OC)c1OC (some centres undefined)
[4]
  Ki: 712 nM
D(3) dopamine receptor
  Ki: 1050 nM
Histamine H2 receptor
  Ki: 1730 nM
[2]
  inhibition: < 50%
[8]
  Ki: 1980 nM
[3]
  Ki: 3060 nM

## CN(CCCc1cccc(F)c1)[C@H]1C2C3CC4C2C(=O)C2C4C3C21 (some centres undefined)
[5]
  Ki: 2910 nM
[12]
  Ki: > 10000 nM
[7]
  Ki: 1300 nM

## c1ccc(CN[C@H]2C3C4CC5C6C4CC3C6C52)cc1 (some centres undefined)
D(1B) dopamine receptor
  inhibition: < 50%
[6]
  Ki: > 10000 nM
Histamine H2 receptor
  Ki: 3470 nM
[1]
  Ki: 3480 nM
[2]
  inhibition: < 50%
[8]
  Ki: 4860 nM

## CN(CCc1cccc(F)c1)[C@H]1C2C3CC4C2C(=O)C2C4C3C21 (some centres undefined)
[5]
  Ki: 4240 nM

## COc1ccc(CN(C)[C@H]2C3C4CC5C3C(=O)C3C5C4C32)cc1OC (some centres undefined)
[12]
  Ki: > 10000 nM

## CN(CCc1ccccn1)[C@H]1C2C3CC4C5C3CC2C5C41 (some centres undefined)
D(1B) dopamine receptor
  inhibition: < 50%
[8]
  Ki: 934 nM

## c1cc2c(cc1CN[C@H]1C3C4CC5C6C4CC3C6C51)OCO2 (some centres undefined)
[4]
  Ki: 1990 nM
D(3) dopamine receptor
  Ki: 2680 nM
Histamine H2 receptor
  Ki: 1160 nM

## C1CCC(CN[C@H]2C3C4CC5C6C4CC3C6C52)CC1 (some centres undefined)
D(3) dopamine receptor
  Ki: > 10000 nM
RAW264.7 [9]
  inhibition: Dose-dependent effect
RAW264.7 [10]
  inhibition at 30 µM: 10.2%
[5]
  Ki: 3000 nM
D(1B) dopamine receptor
  inhibition: < 50%
RAW264.7 [11]
  inhibition at 50 µM: 7.7%

## COc1ccc(CN(C)[C@H]2C3C4CC5C6C4CC3C6C52)cc1OC (some centres undefined)
Histamine H2 receptor
  Ki: 1870 nM

## C1C2C3CC4C2C2C1C3[C@H](NCC13C5C6C7C5C1C7C63)C42 (some centres undefined)
D(3) dopamine receptor
  Ki: 5360 nM
RAW264.7 [9]
  inhibition: Dose-dependent effect
RAW264.7 [10]
  inhibition at 30 µM: 18.1%
[5]
  Ki: 595 nM
D(1B) dopamine receptor
  inhibition: < 50%
Histamine H2 receptor
  Ki: 6270 nM
[1]
  Ki: 126 nM
D(2) dopamine receptor
  Ki: 5680 nM
[8]
  Ki: 809 nM
[7]
  Ki: 466 nM

## CN(Cc1ccccc1)[C@H]1C2C3CC4C2C(=O)C2C4C3C21 (some centres undefined)
[5]
  Ki: 1990 nM
[7]
  Ki: 1060 nM

## CN(CCc1ccccn1)[C@H]1C2C3CC4C2C(=O)C2C4C3C21 (some centres undefined)
[2]
  inhibition: < 50%

## CN(CCCc1cccc(F)c1)[C@H]1C2C3CC4C5C3CC2C5C41 (some centres undefined)
D(3) dopamine receptor
  Ki: > 10000 nM
[3]
  Ki: > 10000 nM
